According to article PMC13147323, “EGFR-Targeted and MMP-Activated Membranolytic Peptides Kill Cancer Cells Specifically In Vitro and Reduce Tumor Growth In Vivo” (Molecular Pharmaceutics, 2026):
Residues, ends and D or L forms follow the SMILES beside them.

Assays:
AU-565 cells = assay type: cell-based, human; conditions: 24 h
Description: (§1) MDA-MB-468, MDA-MB-231, BT-474, AU-565, HB2, and MCF-10A cells were procured from American Type Culture Collection (ATCC) and validated for lack of mycoplasma contamination (MycoAlert; Lonza, Basel, Switzerland) and identity (short tandem repeat profiling; Source Bioscience, Nottingham, UK). Cells (except MCF-10A) were cultured in Dulbecco’s modified Eagle medium (DMEM) supplemented with 10% (v/v) fetal calf serum (FCS) and 100 units/mL penicillin–streptomycin (Thermo Scientific; Waltham, MA, USA). MCF-10A was cultured in DMEM supplemented with 5% horse serum, 0.1 μg/mL cholera toxin, 0.5 μg/mL hydrocortisone, 0.02 μg/mL epidermal growth factor, and 100 units/mL penicillin–streptomycin (Thermo Scientific, Waltham, MA, USA). Cells were grown at 37 °C in a humidified incubator with 5% CO2. Cells were maintained and experiments were performed under conditions ensuring cell densities that supported exponential growth.
(§2) Cells were seeded in 96-well plates at 1 × 10^4 cells/well in complete growth media and incubated for 18 h. Cells were then treated with peptides (0–250 μM) for up to 24 h. Cells were then incubated with 0.5 mg/mL MTT dissolved in PBS for 3 h. Formazan crystals were dissolved using […] of isopropanol and absorbance was measured at 570 nm on a microplate spectrophotometer (Biotech Instruments, USA). For spheroids assays, MDA-MB-468 or HB2 cells (1000 cells/well) were seeded in 250 μL of DMEM supplemented with 10% FCS and 2.5% Matrigel (Corning, New York, USA) in low-adherent, round-bottom 96-well plates (Corning, New York, USA). The plates were centrifuged at 360g for 10 min and subsequently incubated for 48 h to allow spheroid formation. MDA-MB-468 or HB2 spheroids were then treated with peptides at the IC50 doses determined for MDA-MB-468 cells for 24 h. Cellular viability within spheroids was assessed by staining with Hoechst 33342 (5 μg/mL) for 30 min, followed by propidium iodide (PI) (1.5 μg/mL) for 10 min. Red fluorescence indicated nonviable cells stained with PI, whereas blue fluorescence represented both viable and nonviable cells stained with Hoechst 33342. The survival of spheroids was determined by calculating ratios of blue/red fluorescence using ImageJ software.
(§3) A panel of human breast epithelial cell lines was established, including two lines from a nontransformed origin (MCF-10A; HB2) and four cancer lines (BT-474; AU-565; MDA-MB-231; MDA-MB-468). Cells were treated with different doses of MP1 or the modified peptides. Survival was assessed relative to untreated using MTT assays (Figures and S2) and IC50 doses were determined for each peptide in each cell line.

BT-474 cells = assay type: cell-based, human; conditions: 24 h
Description: as §1, §2, §3

HB2 cells = assay type: cell-based, human; conditions: 24 h
Description: as §1, §2, §3

MCF-10A cells = assay type: cell-based, human; conditions: 24 h
Description: as §1, §2, §3

MDA-MB-231 cells = assay type: cell-based, human; conditions: 24 h
Description: as §1, §2, §3

MDA-MB-468 cells = assay type: cell-based, human; conditions: 24 h
Description: as §1, §2, §3

red blood cells = assay: Ex vivo hemolysis assay; assay type: cell-based; conditions: mouse RBCs 1:50 in PBS, three doses, 1 h, 37 °C, absorbance 540 nm
Description: Blood was collected from five 10-week-old male C57BL/6 mice via cardiac puncture following cervical dislocation, using pediatric blood collection tubes containing K3 EDTA (Greiner; Slušovice, Czechia). Blood was centrifuged (500g; 5 min; 4 °C) and plasma was removed. Red blood cells (RBCs) were resuspended to their original volume using 150 mM NaCl. RBCs were repeatedly washed and diluted to 1:50 in PBS. For a positive control, 1% (v/v) Triton X-100 was used (100% lysis), while cells incubated in PBS served as a negative control (0% lysis). 200 μL of RBCs in triplicate was treated with peptides and incubated on an orbital shaker (100 rpm; 1 h; 37 °C). Samples were centrifuged (500g; 5 min) and supernatants, containing lysed RBCs, were collected. Hemolysis was quantified by measuring absorbance at 540 nm.
Our next aim was to assess whether our various peptides had potential as anticancer therapeutics using an in vivo model. To our knowledge, MP1 or MP1-derived peptides have not previously been used experimentally in vivo, therefore we first performed an in vitro hemolysis assay to aid selection of peptides that could be suitable for intravenous delivery. Red blood cells were isolated from mouse blood and treated with three different doses of MP1 wildtype or our targeted peptides (EGFR and EGFR-MMP versions of both MP1 and D2K) and hemolysis was measured (Figure A).

MDA-MB-468 xenografts = assay: MDA-MB-468 xenograft study in NCG mice; assay type: in vivo, mouse; conditions: 500 μg i.v. days 1, 3, 5, monitored 27 days, recovered by the end of the experiment
Description: These were performed by HD Biosciences (Shanghai, China). Procedures related to handling, care, and treatment of animals were performed according to guidelines approved by the HD Biosciences Institutional Animal Care and Use Committee (reference number AUC105), under the criteria of the Association for Assessment and Accreditation of Laboratory Animal Care (AAALAC). Protocols and AAALAC accreditation were reviewed by the Animal Welfare and Ethical Review Committee at the University of Leeds and were approved (reference number THAWERC222707; date 28/7/2022). Protocols and data are reported in accordance with the ARRIVE guidelines (https://arriveguidelines.org/arrive-guidelines). Female NCG mice (6–8 weeks old) were purchased from GemPharmatech Ltd. (Nanjing, China). […] Two groups were used: control group (13 animals) and test group (7 animals); group sizes were not determined by power calculation due to lack of data on which this could be based. […] Tumor volumes were monitored using calipers, and body weight was monitored throughout the experiment; no animals were excluded. […]
NCG immune-compromised female mice were implanted subcutaneously with MDA-MB-468 xenografts. […] Tumor size and animal weight were monitored every 2 to 3 days for a total of 27 days, after which animals were sacrificed and tumors were dissected and weighed. […]

CC[C@H](C)[C@H](N)C(=O)N[C@@H](CC(=O)O)C(=O)N[C@@H](Cc1c[nH]c2ccccc12)C(=O)N[C@@H](CCCCN)C(=O)N[C@@H](CCCCN)C(=O)N[C@@H](CC(C)C)C(=O)N[C@@H](CC(C)C)C(=O)N[C@@H](CC(=O)O)C(=O)N[C@@H](C)C(=O)N[C@@H](C)C(=O)N[C@@H](CCCCN)C(=O)N[C@@H](CCC(N)=O)C(=O)N[C@H](C(=O)N[C@@H](CC(C)C)C(=O)NCC(=O)N1CCC[C@H]1C(=O)N[C@@H](CC(C)C)C(=O)NCC(=O)N[C@H](C(=O)N[C@@H](C)C(=O)NCC(=O)N[C@@H](CCC(N)=O)C(=O)N[C@@H](Cc1ccc(O)cc1)C(=O)N[C@@H](Cc1c[nH]cn1)C(=O)N[C@@H](Cc1c[nH]c2ccccc12)C(=O)N[C@@H](Cc1ccc(O)cc1)C(=O)NCC(=O)N[C@@H](Cc1ccc(O)cc1)C(=O)N[C@H](C(=O)N1CCC[C@H]1C(=O)N[C@@H](CCC(=O)O)C(=O)N[C@@H](CC(N)=O)C(=O)N[C@H](C(=O)N[C@H](C(=O)O)[C@@H](C)CC)C(C)C)[C@@H](C)O)[C@@H](C)CC)[C@@H](C)CC [EGFR-MMP-MP1] (H-IDWKKLLDAAKQILGPLGIAGQYHWYGYTPENVI-OH)
IC50 (AU-565 cells): 105 µM
IC50 (BT-474 cells): 116 µM
IC50 (HB2 cells): 92.4 µM
IC50 (MCF-10A cells): 114 µM
IC50 (MDA-MB-231 cells): 57.9 µM
IC50 (MDA-MB-468 cells): 56.6 µM
selectivity index (IC50 noncancer line / IC50 cancer line) (MDA-MB-468 cells): 1.63
hemolysis (in words) (red blood cells): low hemolysis at relevant doses
animal weights as surrogate for side-effects (MDA-MB-468 xenografts): slightly reduced
